System: fusion protein ACP-FRB
Test: in vitro protein trimer formation with ACP-FRB, ACP synthase, SDS-PAGE
Type: biochemical
Conditions: FRB protein fused to ACP tag, ACP synthase enzyme, overnight incubation at 4° C., coomassie stained
Description: A solution of maleimide derivative (34) (1.4 mg, 1 eq, 1.3 μmol) in DMF (0.7 mL) is added to a solution of CoA-SH (3.5 mg, 3.3 eq, 4.3 μmol) in Tris buffer (pH 7.5, 100 μL). The reaction mixture is shaken overnight at 31° C. The solvent is removed under vacuum and the crude mixture is purified via preparative HPLC. The structural ability of compound (35) to trigger the formation of a protein trimer is confirmed by in vitro experiments using the fusion protein ACP-FRB. 12.5 μL of a 48.5 μM solution of FRB protein fused to the ACP tag (Covalys) is mixed with 0.5 μL of a 0.2 mM solution of compound (35), 2.5 μL of a solution of [500 mM Tris-HCl pH 7.5; 1500 mM NaCl; 100 mM MgCl2], 9.5 μL of double distilled water and 0.5 μl of ACP synthase enzyme (available from Covalys). Following overnight incubation at 4° C., 5 μL of a solution of 100 mM Tris-HCl pH 6.8; 2% SDS; 35% glycerol; 10 mM EDTA; 20 mM DTT is added. The mixture is boiled for 5 min at 95° C. After cooling to rt, 30 μL of this solution is loaded on a 4-20% linear gradient SDS-PAGE gel. After electrophoresis, the proteins are coomassie stained in gel to visualize protein trimer.

CCN(CC)c1ccc2nc3c4cc(OCC(=O)NC(COCCC(=O)NCCN5C(=O)CC(SCCNC(=O)CCNC(=O)[C@H](O)C(C)(C)COP(=O)([O-])OP(=O)([O-])OC[C@H]6O[C@@H](n7cnc8c(N)ncnc87)C(O)C6OP(=O)(O)O)C5=O)(COCCC(=O)NCCN5C(=O)CC(SCCNC(=O)CCNC(=O)[C@H](O)C(C)(C)COP(=O)([O-])OP(=O)([O-])OC[C@H]6O[C@@H](n7cnc8c(N)ncnc87)C(O)C6OP(=O)(O)O)C5=O)COCCC(=O)NCCN5C(=O)CC(SCCNC(=O)CCNC(=O)[C@H](O)C(C)(C)COP(=O)([O-])OP(=O)([O-])OC[C@H]6O[C@@H](n7cnc8c(N)ncnc87)C(O)C6OP(=O)(O)O)C5=O)ccc4c(=O)cc-3oc2c1.[Na+].[Na+].[Na+].[Na+].[Na+].[Na+] (stereo partly shown) [Compound 35, N-Tris-{[2-(2-(2-(CoA-S)-succinimido)ethylaminocarbonyl)ethoxy]-methyl}methyl nile red-oxyacetamide]
structural ability to trigger the formation of a protein trimer: confirmed
